Measurements as given in paper PMC7887271, “Fast acting allosteric phosphofructokinase inhibitors block trypanosome glycolysis and cure acute African trypanosomiasis in mice” (Nature Communications, 2021).

How the values were obtained:
[1] = system: CYP3A4, CYP2D6, CYP2C9, CYP2C19, CYP1A2; assay: Inhibition of CYP450, five isoform panel; assay type: in vitro ADME; settings: human, CYP450 isoform inhibition kit (BD Biosciences), 3A4, 2D6, 2C9, 2C19, 1A2, read-out: % inhibition of CYP450 isoforms
Description: (§1) A HepG2 cytotoxicity assay was used to determine a cellular selectivity index. HepG2 cells were seeded into 96-well plates in EMEM medium. Compounds were assessed for their effect upon cellular viability (Supplementary Methods 5.1). Inhibition of CYP450 was determined using kits from BD Biosciences (Supplementary Methods 5.2). Metabolic stability was determined using mouse […] tested at a single concentration of 5 µM. Plasma protein binding was determined using mouse and human plasma at a single concentration of 10 µM (Supplementary Methods 5.4). All PK studies in mice were carried out by Pharmidex (Supplementary Methods 6.1).
(§2) The compounds were investigated for their inhibitory effect on cytochrome P450 (CYP450) activity using five CYP450 isoforms (with fluorescent substrates in brackets): 3A4 (two substrates, BFC and DBF), 2D6 (AMMC), 2C9 (MFC), 2C19 (CEC) and 1A2 (CEC). Kits from BD Biosciences were used along with the method described by the manufacturer. […] Fluorescence was measured using a SpectraMax M5 plate reader.

TbPFK = molecular target: T1, TbPFK (Trypanosoma brucei brucei, UniProt O15648); assay: Isothermal titration calorimetry (ITC); assay type: binding; settings: 25 °C
T1 construct: made in house; host or cells: Escherichia coli C41 (pET28a, codon optimised gene)
T1 sequence (O15648 1-487): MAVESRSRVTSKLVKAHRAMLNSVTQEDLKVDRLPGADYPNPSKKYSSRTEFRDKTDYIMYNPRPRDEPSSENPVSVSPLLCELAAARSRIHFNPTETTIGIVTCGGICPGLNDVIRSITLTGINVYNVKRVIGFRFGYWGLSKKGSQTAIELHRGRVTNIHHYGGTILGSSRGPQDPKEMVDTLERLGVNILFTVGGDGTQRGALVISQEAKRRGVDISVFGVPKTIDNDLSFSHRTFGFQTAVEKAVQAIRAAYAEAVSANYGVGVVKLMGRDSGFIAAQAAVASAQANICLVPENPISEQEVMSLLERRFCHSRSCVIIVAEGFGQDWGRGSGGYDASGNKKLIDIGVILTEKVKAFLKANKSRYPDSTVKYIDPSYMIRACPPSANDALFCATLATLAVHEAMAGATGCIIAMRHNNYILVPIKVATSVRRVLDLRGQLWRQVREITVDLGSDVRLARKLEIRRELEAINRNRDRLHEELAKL

CYP2D6 = molecular target: T2, CYP2D6 (Homo sapiens, UniProt P10635); assay: Inhibition of CYP2D6; assay type: in vitro ADME; settings: CYP450 isoform inhibition kit (BD Biosciences), probe AMMC
T2 construct: purchased BD Biosciences
T2 sequence (P10635 whole entry, canonical isoform): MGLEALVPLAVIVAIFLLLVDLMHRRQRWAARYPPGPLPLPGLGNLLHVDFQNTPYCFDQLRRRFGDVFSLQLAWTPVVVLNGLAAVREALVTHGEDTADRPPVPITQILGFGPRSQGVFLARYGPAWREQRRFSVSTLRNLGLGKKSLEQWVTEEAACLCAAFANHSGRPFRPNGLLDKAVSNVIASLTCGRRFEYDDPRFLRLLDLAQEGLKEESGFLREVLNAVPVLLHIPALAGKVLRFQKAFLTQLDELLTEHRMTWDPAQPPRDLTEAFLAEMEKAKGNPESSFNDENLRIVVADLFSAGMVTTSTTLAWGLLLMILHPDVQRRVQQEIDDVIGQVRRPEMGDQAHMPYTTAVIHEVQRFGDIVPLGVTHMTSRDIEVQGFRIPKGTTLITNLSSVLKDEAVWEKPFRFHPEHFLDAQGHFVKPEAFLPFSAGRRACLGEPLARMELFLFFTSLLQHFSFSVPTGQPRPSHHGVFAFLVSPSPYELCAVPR
Description: as §1, §2

Row | SMILES | inhibition at 10 µM [1] [%] | Kd (TbPFK) [µM] | TΔS contribution (TbPFK; ITC) [kJ/mol] | ΔG (TbPFK; ITC) [kJ/mol] | ΔH (TbPFK; ITC) [kJ/mol] | inhibition at 10 µM (CYP2D6) [%]
1 | CN(C)CCn1ccc2c(ccn2Cc2ccc(F)c(Br)c2)c1=O [CTCB-508, 1-[(3-Bromo-4-fluorophenyl)methyl]-5-[2-(dimethylamino)ethyl] pyrrolo[3,2-c]pyridin-4-one] | ≤ 10 |  |  |  |  | 
2 | CN(C)CCn1ccc2c(ccn2Cc2ccc(Cl)c(Cl)c2)c1=O [CTCB-405, 1-[(3,4-Dichlorophenyl)methyl]-5-[2-(dimethylamino)ethyl] pyrrolo[3,2-c]pyridin-4-one] |  | 0.092 | -16.9 | -40 | -56.9 | 60
